Test results taken from patent publication US11319321B2, “[1,2,4]triazolo[1,5-a]pyrimidine compounds as PDE2 inhibitors” (Janssen Pharmaceutica NV, priority 2016, dated 2022).

Each compound was assayed against T1, Human recombinant PDE2A (hPDE2A) (Homo sapiens, UniProt O00408) (assay: In vitro assay PDE2A (SPA, 3H-cGMP)). Settings: 10 μM cGMP substrate.
T1 construct: made in house; host or cells: Sf9 insect cells (baculovirus)
Type: biochemical
Description: Human recombinant PDE2A (hPDE2A) was expressed in Sf9 cells using a recombinant rPDE10A baculovirus construct. Cells were harvested after 48 h of infection and the hPDE2A protein was purified by metal chelate chromatography on Ni-sepharose 6FF. Tested compounds were dissolved and diluted in 100% DMSO to a concentration 100 fold of the final concentration in the assay. Compound dilutions (0.4 μl) were added in 384 well plates to 20 μl of incubation buffer (50 mM Tris pH 7.8, 8.3 mM MgCl2, 1.7 mM EGTA). 10 μl of hPDE2A enzyme in incubation buffer was added and the reaction was started by addition of 10 μl substrate to a final concentration of 10 μM cGMP and 0.01 μCi ^3H-cGMP. The reaction was incubated for 45 minutes at room temperature. […] After sedimentation of the beads during 30 minutes the radioactivity was measured in a Perkin Elmer Topcount scintillation counter and results were expressed as cpm. For blanc values the enzyme was omitted from the reaction and replaced by incubation buffer. Control values were obtained by addition of a final concentration of 1% DMSO instead of compound.

T1 sequence (O00408 whole entry): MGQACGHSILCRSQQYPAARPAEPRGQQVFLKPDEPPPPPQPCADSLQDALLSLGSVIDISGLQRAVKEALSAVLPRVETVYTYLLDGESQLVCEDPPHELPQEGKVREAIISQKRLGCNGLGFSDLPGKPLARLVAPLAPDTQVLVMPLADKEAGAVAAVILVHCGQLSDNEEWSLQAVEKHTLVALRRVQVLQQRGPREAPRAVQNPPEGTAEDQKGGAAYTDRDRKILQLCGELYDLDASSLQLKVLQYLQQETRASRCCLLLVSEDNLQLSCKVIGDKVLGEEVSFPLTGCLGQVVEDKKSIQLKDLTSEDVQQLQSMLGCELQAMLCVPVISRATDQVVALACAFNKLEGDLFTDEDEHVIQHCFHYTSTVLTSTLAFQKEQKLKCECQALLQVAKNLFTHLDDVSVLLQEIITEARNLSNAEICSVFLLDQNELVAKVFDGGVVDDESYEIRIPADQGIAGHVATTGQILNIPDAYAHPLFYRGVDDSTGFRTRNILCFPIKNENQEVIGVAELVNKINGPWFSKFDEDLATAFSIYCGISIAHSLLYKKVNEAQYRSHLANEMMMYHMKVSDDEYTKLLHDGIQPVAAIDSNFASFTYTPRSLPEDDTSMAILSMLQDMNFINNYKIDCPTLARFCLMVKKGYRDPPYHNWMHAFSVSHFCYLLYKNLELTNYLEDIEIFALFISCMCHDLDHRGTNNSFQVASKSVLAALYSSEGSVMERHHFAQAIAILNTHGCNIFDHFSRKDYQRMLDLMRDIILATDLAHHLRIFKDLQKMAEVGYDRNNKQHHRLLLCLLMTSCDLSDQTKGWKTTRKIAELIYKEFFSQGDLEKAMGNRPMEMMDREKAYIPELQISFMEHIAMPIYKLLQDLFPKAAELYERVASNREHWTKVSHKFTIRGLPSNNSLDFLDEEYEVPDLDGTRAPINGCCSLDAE

SMILES | Emax [%]
COc1ccc(CN2CCC[C@](C)(c3cc(C(F)F)nc4ncnn34)C2)c(OC)c1.Cl (stereo in doubt) [Compound 53] | 14
C[C@]1(c2cc(C(F)F)nc3ncnn23)CCCN(Cc2ccc(F)c(F)c2)C1.Cl (stereo in doubt) [Compound 54] | 15
Cc1cc(CN2CC[C@@H](C)[C@H](c3cc(C(F)F)nc4ncnn34)C2)cc(C2CC2)n1 [Compound 9] | 100
C[C@@H]1CCN(Cc2ccccc2)C[C@H]1c1cc(C(F)F)nc2ncnn12 [Compound 20] | 97
C[C@@H]1CCN(Cc2ccc(OC(F)(F)F)cc2)C[C@H]1c1cc(C(F)F)nc2ncnn12 [Compound 23] | 97
C[C@@H]1CCN(Cc2cccc(C#N)n2)C[C@H]1c1cc(C(F)F)nc2ncnn12 [Compound 25] | 92
C[C@@H]1CCN(CC2CCOCC2)C[C@H]1c1cc(C(F)F)nc2ncnn12.Cl [Compound 26] | 27
C[C@H]1CCN(CC2CCOCC2)C[C@@H]1c1cc(C(F)F)nc2ncnn12.Cl [Compound 27] | 20
CC(C)CN1CC[C@@H](C)[C@H](c2cc(C(F)F)nc3ncnn23)C1 [Compound 29] | 3
C[C@@H]1CCN(Cc2cn(C)c3ccccc23)C[C@H]1c1cc(C(F)F)nc2ncnn12.Cl [Compound 35] | 102
C[C@@H]1CCN(Cc2cc3ccccc3o2)C[C@H]1c1cc(C(F)F)nc2ncnn12.Cl [Compound 38] | 88

Same assay, conditions: 10 μM cGMP substrate; read-out: hPDE2A pIC50 (converted)

SMILES | IC50 [µM]
C[C@]1(c2cc(C(F)F)nc3ncnn23)CCCN(Cc2ccc(F)c(F)c2)C1.Cl (stereo in doubt) [Compound 54] | ~8.91
Cc1cc(CN2CC[C@@H](C)[C@H](c3cc(C(F)F)nc4ncnn34)C2)cc(C2CC2)n1 [Compound 9] | 0.00525
C[C@@H]1CCN(Cc2ccccc2)C[C@H]1c1cc(C(F)F)nc2ncnn12 [Compound 20] | 0.457
C[C@@H]1CCN(Cc2ccc(OC(F)(F)F)cc2)C[C@H]1c1cc(C(F)F)nc2ncnn12 [Compound 23] | 0.575

Same assay, conditions: hPDE2A pIC50, 10 μM cGMP substrate

SMILES | IC50 [µM]
COc1ccc(CN2CCC[C@](C)(c3cc(C(F)F)nc4ncnn34)C2)c(OC)c1.Cl (stereo in doubt) [Compound 53] | 6.92
C[C@@H]1CCN(Cc2cccc(C#N)n2)C[C@H]1c1cc(C(F)F)nc2ncnn12 [Compound 25] | 1.02
C[C@@H]1CCN(CC2CCOCC2)C[C@H]1c1cc(C(F)F)nc2ncnn12.Cl [Compound 26] | ~3.09
C[C@H]1CCN(CC2CCOCC2)C[C@@H]1c1cc(C(F)F)nc2ncnn12.Cl [Compound 27] | ~4.9
CC(C)CN1CC[C@@H](C)[C@H](c2cc(C(F)F)nc3ncnn23)C1 [Compound 29] | ~8.71
C[C@@H]1CCN(Cc2cn(C)c3ccccc23)C[C@H]1c1cc(C(F)F)nc2ncnn12.Cl [Compound 35] | 0.0479
C[C@@H]1CCN(Cc2cc3ccccc3o2)C[C@H]1c1cc(C(F)F)nc2ncnn12.Cl [Compound 38] | 0.162

The compounds below were run on hPDE3B (assay: In vitro assay PDE3 (SPA, 3H-cAMP)). Settings: 0.4 μM cAMP substrate.
Type: biochemical, human

SMILES | hPDE3B pIC50
COc1ccc(CN2CCC[C@](C)(c3cc(C(F)F)nc4ncnn34)C2)c(OC)c1.Cl (stereo in doubt) [Compound 53] | <5
C[C@]1(c2cc(C(F)F)nc3ncnn23)CCCN(Cc2ccc(F)c(F)c2)C1.Cl (stereo in doubt) [Compound 54] | <5
Cc1cc(CN2CC[C@@H](C)[C@H](c3cc(C(F)F)nc4ncnn34)C2)cc(C2CC2)n1 [Compound 9] | <5
C[C@@H]1CCN(Cc2ccccc2)C[C@H]1c1cc(C(F)F)nc2ncnn12 [Compound 20] | <5
C[C@@H]1CCN(Cc2ccc(OC(F)(F)F)cc2)C[C@H]1c1cc(C(F)F)nc2ncnn12 [Compound 23] | 5.14
C[C@@H]1CCN(Cc2cccc(C#N)n2)C[C@H]1c1cc(C(F)F)nc2ncnn12 [Compound 25] | <5
C[C@@H]1CCN(CC2CCOCC2)C[C@H]1c1cc(C(F)F)nc2ncnn12.Cl [Compound 26] | <5
C[C@H]1CCN(CC2CCOCC2)C[C@@H]1c1cc(C(F)F)nc2ncnn12.Cl [Compound 27] | <5
CC(C)CN1CC[C@@H](C)[C@H](c2cc(C(F)F)nc3ncnn23)C1 [Compound 29] | <5
C[C@@H]1CCN(Cc2cn(C)c3ccccc23)C[C@H]1c1cc(C(F)F)nc2ncnn12.Cl [Compound 35] | <5
C[C@@H]1CCN(Cc2cc3ccccc3o2)C[C@H]1c1cc(C(F)F)nc2ncnn12.Cl [Compound 38] | <5

Same assay, conditions: 0.4 μM cAMP substrate; in % (unit assumed)

SMILES | hPDE3B Emax
COc1ccc(CN2CCC[C@](C)(c3cc(C(F)F)nc4ncnn34)C2)c(OC)c1.Cl (stereo in doubt) [Compound 53] | 3
C[C@]1(c2cc(C(F)F)nc3ncnn23)CCCN(Cc2ccc(F)c(F)c2)C1.Cl (stereo in doubt) [Compound 54] | 5
Cc1cc(CN2CC[C@@H](C)[C@H](c3cc(C(F)F)nc4ncnn34)C2)cc(C2CC2)n1 [Compound 9] | 34
C[C@@H]1CCN(Cc2ccccc2)C[C@H]1c1cc(C(F)F)nc2ncnn12 [Compound 20] | 23
C[C@@H]1CCN(Cc2ccc(OC(F)(F)F)cc2)C[C@H]1c1cc(C(F)F)nc2ncnn12 [Compound 23] | 49
C[C@@H]1CCN(Cc2cccc(C#N)n2)C[C@H]1c1cc(C(F)F)nc2ncnn12 [Compound 25] | 12
C[C@@H]1CCN(CC2CCOCC2)C[C@H]1c1cc(C(F)F)nc2ncnn12.Cl [Compound 26] | 12
C[C@H]1CCN(CC2CCOCC2)C[C@@H]1c1cc(C(F)F)nc2ncnn12.Cl [Compound 27] | 3
CC(C)CN1CC[C@@H](C)[C@H](c2cc(C(F)F)nc3ncnn23)C1 [Compound 29] | −14
C[C@@H]1CCN(Cc2cn(C)c3ccccc23)C[C@H]1c1cc(C(F)F)nc2ncnn12.Cl [Compound 35] | 22
C[C@@H]1CCN(Cc2cc3ccccc3o2)C[C@H]1c1cc(C(F)F)nc2ncnn12.Cl [Compound 38] | 28

What follows are compounds tested against hPDE10A2 (Homo sapiens, UniProt Q9Y233) (assay: biochemical). Settings: human clone; 60 nM cAMP substrate; read-out: hPDE10A2 or rPDE10A2 pIC50 (converted).
Sequence of hPDE10A2 (Q9Y233 267-1055): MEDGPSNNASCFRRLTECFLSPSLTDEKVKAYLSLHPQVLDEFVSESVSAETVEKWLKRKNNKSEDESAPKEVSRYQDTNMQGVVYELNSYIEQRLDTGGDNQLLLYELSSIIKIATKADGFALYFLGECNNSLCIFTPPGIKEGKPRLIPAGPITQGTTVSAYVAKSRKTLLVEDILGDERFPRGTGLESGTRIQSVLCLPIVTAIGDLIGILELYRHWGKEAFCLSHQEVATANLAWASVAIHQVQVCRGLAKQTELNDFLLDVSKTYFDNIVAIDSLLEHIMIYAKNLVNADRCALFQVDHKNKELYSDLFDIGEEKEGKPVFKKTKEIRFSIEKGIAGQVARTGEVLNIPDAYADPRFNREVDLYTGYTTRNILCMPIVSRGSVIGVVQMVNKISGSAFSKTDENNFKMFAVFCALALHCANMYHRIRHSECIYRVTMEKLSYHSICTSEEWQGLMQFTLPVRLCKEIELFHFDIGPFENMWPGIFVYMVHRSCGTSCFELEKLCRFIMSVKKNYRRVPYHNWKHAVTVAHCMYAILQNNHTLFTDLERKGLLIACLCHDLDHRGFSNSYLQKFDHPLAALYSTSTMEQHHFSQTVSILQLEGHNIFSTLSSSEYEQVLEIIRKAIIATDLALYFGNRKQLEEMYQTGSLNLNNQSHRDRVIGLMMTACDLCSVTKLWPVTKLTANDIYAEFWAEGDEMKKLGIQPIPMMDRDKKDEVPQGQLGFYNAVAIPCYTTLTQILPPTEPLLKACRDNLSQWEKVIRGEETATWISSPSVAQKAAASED
Description: Rat recombinant PDE10A (rPDE10A2) was expressed in Sf9 cells using a recombinant rPDE10A baculovirus construct. Cells were harvested after 48 h of infection and the rPDE10A protein was purified by metal chelate chromatography on Ni-sepharose 6FF. Tested compounds were dissolved and diluted in 100% DMSO to a concentration 100 fold of the final concentration in the assay. Human recombinant PDE10A ([…]) was expressed in Sf9 cells using a recombinant hPDE10A baculovirus that was made and amplified in house. Cells were harvested after 72 h of infection and the hPDE10A protein was purified by metal chelate chromatography on Ni-sepharose. Compound dilutions (0.4 μl) were added in 384 well plates to 20 μl of incubation buffer (50 mM Tris pH 7.8, 8.3 mM MgCl2, 1.7 mM EGTA). 10 μl of rPDE10A or hPDE10A enzyme in incubation buffer was added and the reaction was started by addition of 10 μl substrate to a final concentration of 60 nM cAMP and […] ^3H-cAMP. The reaction was incubated for 60 minutes at room temperature. After incubation, the reaction was stopped with 20 μl of stop solution consisting of 17.8 mg/ml PDE SPA (scintillation proximity assay) beads. After sedimentation of the beads during 30 minutes the radioactivity was measured in a Perkin Elmer Topcount scintillation counter and results were expressed as cpm. For blanc values the enzyme was omitted from the reaction and replaced by incubation buffer. Control values were obtained by addition of a final concentration of 1% DMSO instead of compound. A best fit curve is fitted by a minimum sum of squares method to the plot of % of control value substracted with blanc value versus compound concentration and the half maximal inhibitory concentration (IC50) value is derived from this curve.

SMILES | IC50 [µM]
COc1ccc(CN2CCC[C@](C)(c3cc(C(F)F)nc4ncnn34)C2)c(OC)c1.Cl (stereo in doubt) [Compound 53] | > 10
C[C@]1(c2cc(C(F)F)nc3ncnn23)CCCN(Cc2ccc(F)c(F)c2)C1.Cl (stereo in doubt) [Compound 54] | > 10
Cc1cc(CN2CC[C@@H](C)[C@H](c3cc(C(F)F)nc4ncnn34)C2)cc(C2CC2)n1 [Compound 9] | 1.58
C[C@@H]1CCN(Cc2ccccc2)C[C@H]1c1cc(C(F)F)nc2ncnn12 [Compound 20] | > 10
C[C@@H]1CCN(Cc2ccc(OC(F)(F)F)cc2)C[C@H]1c1cc(C(F)F)nc2ncnn12 [Compound 23] | 6.92
C[C@@H]1CCN(Cc2cccc(C#N)n2)C[C@H]1c1cc(C(F)F)nc2ncnn12 [Compound 25] | > 10
C[C@@H]1CCN(CC2CCOCC2)C[C@H]1c1cc(C(F)F)nc2ncnn12.Cl [Compound 26] | > 10
C[C@H]1CCN(CC2CCOCC2)C[C@@H]1c1cc(C(F)F)nc2ncnn12.Cl [Compound 27] | > 10
CC(C)CN1CC[C@@H](C)[C@H](c2cc(C(F)F)nc3ncnn23)C1 [Compound 29] | > 10
C[C@@H]1CCN(Cc2cn(C)c3ccccc23)C[C@H]1c1cc(C(F)F)nc2ncnn12.Cl [Compound 35] | 7.59
C[C@@H]1CCN(Cc2cc3ccccc3o2)C[C@H]1c1cc(C(F)F)nc2ncnn12.Cl [Compound 38] | 4.68

Same assay, conditions: read-out: hPDE10A2 or rPDE10A2 Emax, human clone; 60 nM cAMP substrate

SMILES | Emax [%]
COc1ccc(CN2CCC[C@](C)(c3cc(C(F)F)nc4ncnn34)C2)c(OC)c1.Cl (stereo in doubt) [Compound 53] | 0
C[C@]1(c2cc(C(F)F)nc3ncnn23)CCCN(Cc2ccc(F)c(F)c2)C1.Cl (stereo in doubt) [Compound 54] | 9
Cc1cc(CN2CC[C@@H](C)[C@H](c3cc(C(F)F)nc4ncnn34)C2)cc(C2CC2)n1 [Compound 9] | 83
C[C@@H]1CCN(Cc2ccccc2)C[C@H]1c1cc(C(F)F)nc2ncnn12 [Compound 20] | 26
C[C@@H]1CCN(Cc2ccc(OC(F)(F)F)cc2)C[C@H]1c1cc(C(F)F)nc2ncnn12 [Compound 23] | 62
C[C@@H]1CCN(Cc2cccc(C#N)n2)C[C@H]1c1cc(C(F)F)nc2ncnn12 [Compound 25] | 28
C[C@@H]1CCN(CC2CCOCC2)C[C@H]1c1cc(C(F)F)nc2ncnn12.Cl [Compound 26] | 12
C[C@H]1CCN(CC2CCOCC2)C[C@@H]1c1cc(C(F)F)nc2ncnn12.Cl [Compound 27] | 11
CC(C)CN1CC[C@@H](C)[C@H](c2cc(C(F)F)nc3ncnn23)C1 [Compound 29] | 3
C[C@@H]1CCN(Cc2cn(C)c3ccccc23)C[C@H]1c1cc(C(F)F)nc2ncnn12.Cl [Compound 35] | 53
C[C@@H]1CCN(Cc2cc3ccccc3o2)C[C@H]1c1cc(C(F)F)nc2ncnn12.Cl [Compound 38] | 69
